Source: patent US20230391732A1, “MULTI-EFFICACY PYRAZINE COMPOUND, PREPARATION METHOD AND USE THEREOF” (SHENZHEN OLIVE BIOPHARMACEUTICALS CO., LTD, priority 2020, published 2023)

Columns and labels:
db/db mice [1] = test: Glucose and lipid metabolism in db/db mice, 56 d administration; type: in vivo; settings: TMP 5.0 mg/kg, OLB-3 13.32 mg/kg, mean±SEM, n=6
Method: (§1) Mice of a normal control group (WT) and model mice were given normal saline 10 ml/kg/d, Losartan 15 mg/kg/d, TMP (5.0 mg/kg, 0.037 mmol/kg), and OLB-3 (13.32 mg/kg, 0.037 mmol/kg), at a volume of 10 mL/kg, once/d, for continuous administration of 56 d, blood lipids and blood glucose related indexes were measured after blood collection. Data were presented as mean±SEM; n=6 per group.

db/db mice [2] = test: Biochemical and metabolic indicators in db/db mice, 56 d administration; type: in vivo; settings: Losartan 15 mg/kg/d, TMP 5.0 mg/kg, OLB-3 13.32 mg/kg, n=6; for Urine albumin/creatinine: once/d for 56 d, mean, SEM
ALS (SOD-G93A) mice [3] = test: Pole climbing test in ALS transgenic mice; type: in vivo; settings: riluzole 5 mg/kg, FIG. 6
Description: The pole climbing test is generally used to evaluate a movement coordination ability, movement delay of the limbs in mice, and muscle strength. A homemade wooden pole about 50 cm long and about 1 cm in diameter was wrapped with medical gauze to increase friction of the wooden pole. The wooden pole was put vertically on a horizontal table, the mouse tail was grabbed such that the mouse head was facing down, with limbs grabbing a top of the pole; the timer was started after releasing the mouse tail, and it was ensured that the mouse crawled downward without external force, and the time was recorded for the mouse to climb from the top of the pole to a bottom platform (a standard was that mouse hind limbs were landed on the ground). […] The average value of the mouse's three pole climbing times was calculated as the final pole climbing time. […] Data were presented as mean±SEM; n=10 per group.

ALS (SOD-G93A) mice [4] = test: Limb grip force test in ALS transgenic mice; type: in vivo; settings: riluzole 5 mg/kg, FIG. 7
Method: The limb grip force test is used directly to assess muscle strength of mice and the incidence of mice. […] After the start of administration, the grip force of the mice was tested every two weeks, and the measurement was repeated three times for each mouse, and the maximum value among the three results was taken as a maximum grip force of the mice. […] Data were presented as mean±SEM; n=10 per group.

5*FAD mice [5] = test: Y-maze in 5*FAD mice; type: in vivo; settings: 6-month-old 5*FAD mice treated 3 months; 2.63 and 13.32 mg/kg; FIG. 4
Method: (§2) 6-month-old 5*FAD mice were treated with OLB-3 for 3 months, and novel object recognition and Y-maze behavior were measured. Novel object recognition: during a training phase, the mice were exposed in a chamber to become familiar with two identical objects (A+A) for 5 min; during a testing phase, one of the familiar objects was replaced with another novel object (A+B), and the mice were put back in the chamber to detect probe objects for 5 min, while recording video and tracking the mice in real time. Probing was defined as a mouse with its nose pointed towards the object, sniffing or touching with its nose, and a distance of ≤2 cm was recorded from the nose to the object. A discriminant index (DI) is used to explore each object, and a calculation method thereof was as follows: (exploration time for new object−exploration time for old object)/(exploration time for new object+exploration time for old object)*100. Y-maze: an animal was placed at an end of one arm, and the sequence of the animals entering into each arm was recorded within 10 min. […] The 5*FAD mice were treated with low dosage (2.63 mg/kg, 0.007 mmol/kg, the same below) and high dosage (13.32 mg/kg, 0.037 mmol/kg, the same below) of the OLB-3 separately. Data were presented as mean±SEM; n=9-10 per group.

db/db mice [6] = test: Urinary protein level in db/db mice; type: in vivo; settings: OLB-3 13.32 mg/kg once/d for 56 d, FIG. 2
Method: as §1, with “10” for “15”, “m/kg,” for “mL/kg,”, “urine protein levels” for “blood lipids and blood glucose related indexes”, “urine” for “blood”

5*FAD mice [7] = test: Novel object recognition in 5*FAD mice; type: in vivo; settings: 6-month-old 5*FAD mice treated 3 months; 2.63 and 13.32 mg/kg; FIG. 3
Method: as §2

[8] = test system: SH-SY5Y neuroblastoma cells; test: LPS-induced oxidative stress-related proteins in differentiated SH-SY5Y cells (ELISA); type: cell-based; settings: 24 h, mean±SEM, n=8
Method: (§3) The SH-SY5Y cells were recovered and incubated, and the cells in the logarithmic growth phase were taken. After 24 h of incubation, SH-SY5Y neuroblastoma cells were treated with 1 μM all-trans retinoic acid to induce differentiation, and then inoculated into a 6-well culture dish for 24 h of incubation. Then, 0.2 μM (L) or 1 μM (H) OLB-3 and 1 μg/mL LPS were added to the medium, and treated for 24 h, a supernatant medium was aspirated, and changes of inflammatory factors and oxidative stress-related proteins were measured by an ELISA kit. Data were presented as mean±SEM; n=8 per group.

[9] = test system: SH-SY5Y neuroblastoma cells; test: LPS-induced inflammatory factors in differentiated SH-SY5Y cells (ELISA); type: cell-based; settings: 24 h, mean±SEM, n=8; for TNF-alpha: supernatant
Method: as §3

[10] = test system: 6-OHDA Parkinson's disease rats; test: APO-induced rotations in 6-OHDA Parkinson's disease rats; type: in vivo; settings: APO-induced 6-OHDA rats, 2 weeks of treatment; levodopa 25 mg/kg; FIG. 5
Description: There was no rotations in a sham-operated group, and there was no significant difference between the groups injected with 6-OHDA, with about 180 rotations. […] Data were presented as mean±SEM; n=10 per group.

SH-SY5Y cells = test: MTT assay of SH-SY5Y cell death caused by OGD; type: cell-based; settings: 4 h OGD, FIG. 1
Method: A neuroprotective effect of tetramethylpyrazine (TMP) and derivatives thereof was evaluated by MTT assay. Cells were incubated, cells in the logarithmic growth phase were collected, a concentration of a cell suspension was adjusted, an MTT-containing medium was added after dosing treatment and 4 h of incubation with OGD, incubation was conducted for 4 h, the medium in the wells was carefully removed, and 150 μl of dimethyl sulfoxide (DMSO) was added to each well, followed by shaking at a low speed for 10 min on a shaker to fully dissolve crystals, and an absorbance value of each well was measured at an OD (absorbance) value of 490 nm of an enzyme-linked immunosorbent assay instrument (at the same time, a zero adjustment well (medium, MTT, DMSO) and a control well (cells, a drug dissolution medium with the same concentration, medium, MTT, DMSO) were set). Data were presented as mean±SEM; n=8 per group.

[11] = Table 3, once/d for 56 d, Losartan 15 mg/kg/d
[12] = once/d for 56 d, Losartan 15 mg/kg/d
[13] = (H) high concentration (OLB-3 1 μM) + 1 μg/mL LPS
[14] = (L) low concentration (OLB-3 0.2 μM) + 1 μg/mL LPS

In the case of `CN(C)C(=N)N=C(N)N` [metformin, reference compound], the Glycated hemoglobin (db/db mice [1]; once/d for 56 d) is reported as 628.52 ± 50.59(c) nmol/L, the High-density lipoprotein cholesterol (db/db mice [1]; once/d for 56 d) is reported as 2.19 ± 0.12(a) mM and the Low-density lipoprotein cholesterol (db/db mice [1]; once/d for 56 d) is reported as 0.59 ± 0.02(c) mM.
`Cc1nc(C)c(C)nc1C` [TMP, Tetramethylpyrazine, reference compound] gave a Urine albumin/creatinine (db/db mice [2]) of 661.82 ± 89.54 mg/g.
For `Nc1nc2ccc(OC(F)(F)F)cc2s1` [riluzole, reference compound], the “pole climbing time / bradykinesia” value (ALS (SOD-G93A) mice [3]) was “significantly improve the symptoms of bradykinesia” and the limb grip force (ALS (SOD-G93A) mice [4]) was “effectively increase the limb force of mice”.
For `CCCCc1nc(Cl)c(CO)n1Cc1ccc(-c2ccccc2-c2nn[nH]n2)cc1` [Losartan, reference compound], the Creatinine (db/db mice [1]; [11]) was 42.12 ± 1.72(c) μmol/L, the Total cholesterol (db/db mice [1]; [12]) was 6.76 ± 0.46(c) mM and the Creatinine (db/db mice [2]; Table 4, once/d for 56 d) was 42.12 ± 1.72(c) μmol/L. For the same molecule, the Urine albumin/creatinine (db/db mice [2]) was 582.74 ± 97.82(c) mg/g.
With `Cc1nc(C)c(C(=O)OCOC(=O)OCCc2ccc(O)cc2)nc1C` [OLB-3] the “time ratio in a novel different arm” value (5*FAD mice [5]) was “significantly increase a time ratio in a novel different arm”, the urinary protein levels (db/db mice [6]) was “significantly reduced urinary protein levels” and the “pole climbing time / bradykinesia” value (ALS (SOD-G93A) mice [3]) was “significantly improve the symptoms of bradykinesia”. For the same molecule, the “time ratio to explore novel objects” value (5*FAD mice [7]) was “significantly increase a time ratio to explore novel objects”, the GSH-Px [8, 13] was 17.51 ± 1.17(c) umol/mg and the MDA [8, 13] was 6.71 ± 0.51(c) nmol/mg. For the same molecule, the SOD [8, 13] was 18.27 ± 1.02(c) nU/ml, the GSH-Px [8, 14] was 13.21 ± 1.92(c) umol/mg and the MDA [8, 14] was 11.10 ± 0.78(c) nmol/mg. The SOD [8, 14] was 14.96 ± 1.32(c) nU/ml, the TNF-alpha [9, 13] was 4.19 ± 0.77(c) pg/ml and the IL1 [9, 13] was 4.27 ± 0.58(c) pg/ml. For the same molecule, the IL6 [9, 13] was 5.13 ± 0.63(c) pg/ml, the TNF-alpha [9, 14] was 7.34 ± 1.38(c) pg/ml and the IL1 [9, 14] was 8.76 ± 1.56(c) pg/ml. The IL6 [9, 14] was 9.34 ± 1.67(b) pg/ml, the Creatinine (db/db mice [1]; [11]) was 42.42 ± 2.73(c) μmol/L and the Urea (db/db mice [1]; [11]) was 7.42 ± 0.31(c) mmol/L. The Total cholesterol (db/db mice [1]; [12]) was 4.15 ± 0.18(c) mM, the Triglyceride (db/db mice [1]; [12]) was 9.61 ± 0.57(c) mg/dL and the Glucose determination (db/db mice [1]; once/d for 56 d) was 17.26 ± 1.42(c) mM. The Glycated hemoglobin (db/db mice [1]; once/d for 56 d) was 517.83 ± 47.26(c) nmol/L, the High-density lipoprotein cholesterol (db/db mice [1]; once/d for 56 d) was 1.62 ± 0.11(c) mM and the Low-density lipoprotein cholesterol (db/db mice [1]; once/d for 56 d) was 0.52 ± 0.02(c) mM. The limb grip force (ALS (SOD-G93A) mice [4]) was “effectively increase the limb force of mice”, the Creatinine (db/db mice [2]; Table 4, once/d for 56 d) was 42.42 ± 2.73(c) μmol/L and the Urea (db/db mice [2]; Table 4, once/d for 56 d) was 7.42 ± 0.31(c) mmol/L. For the same molecule, the Urine albumin/creatinine (db/db mice [2]) was 443.82 ± 78.34(c) mg/g, the number of rotations [10] was “effectively reduce the number of rotations” and the “death of SH-SY5Y cells caused by OGD (MTT)” value (SH-SY5Y cells) was “significantly reduce the death of SH-SY5Y cells caused by OGD”.
